This is an account of results in patent publication US10525159B2, “Liquid preparation for contact lenses comprising hydrolyzed hyaluronic acid derivative and cationic bactericide” (OPHTECS CORPORATION, priority 2016, dated 2020).

The nature of series [1]: Hydrophilicity of SCL by dynamic contact angle measurement (balafilcon A). As to conditions: FIG. 7. Type of series: physicochemical. The procedure:
(§1) SCL having etafilcon A, senofilcon A or balafilcon A as a material was taken out from a blister pack. Moisture on SCL to be measured was wiped off twice with a paper waste cloth, and dien the contact angle was measured using a dynamic contact angle measuring apparatus (automatic contact angle meter DSA100 S manufactured by Krass Company). SCL was set on a sample stage of the dynamic contact angle measuring apparatus in such a manner that die concave surface of the SCL faced upward, and 2 μL of PBS was dropped After dropping, droplets were photographed with a camera after about 10 seconds, and the contact angle between the SCL surface and the droplet was calculated by analysis software.
(§2) Next, each SCL was immersed in a PBS solution containing 50 ppm of the hydrolyzed hyaluronic acid derivative. As a control test, each SCL was immersed in PBS. […] The cycle treatment was repeated, and fir SCL 1 day after immersion and 13 days after immersion, the contact angle was calculated in die same manner as described above.
(§3) Further, each SCL was immersed in a PBS solution containing 50 ppm of Na hyaluronate instead of die hydrolyzed hyaluronic add derivative, and die contact angle was calculated in die same manner as in the case of the hydrolyzed hyaluronic acid derivative.

The nature of series [2]: Hydrophilicity of SCL by dynamic contact angle measurement (senofilcon A). The format is physicochemical. To be noted: FIG. 9. The protocol: as §1, §2, §3
For another series, the system named is both eyes of 15 subjects. Briefly: Suppression of corneal staining: SPK (superficial punctate keratitis) score in subjects. The format is in vivo. To be noted: 50 ppm in solution A; 15 subjects (30 eyes); conclusion from the SPK score.
Series [3] in a line: Hydrophilicity of SCL by dynamic contact angle measurement (etafilcon A). The format is physicochemical. The procedure:
as §1
Next, each SCL was immersed in a PBS solution containing 50 ppm of the hydrolyzed hyaluronic acid derivative. As a control test, each SCL was immersed in PBS. The SCLs were immersed in the respective solutions overnight, and then subjected to cycle treatment under the condition of immersion of the SCL in PBS for 8 hours in conformity to actual wear. The cycle treatment was repeated, and fir SCL 1 day after immersion and 13 days after immersion, the contact angle was calculated in die same manner as described above.
as §3

The mark [4] stands for this setting: PBS containing 50 ppm, risk ratio of less than 5%.

As to “hydrolyzed alkyl (C12-13) glyceryl hyaluronate [hydrolyzed hyaluronic acid derivative]”, the “contact angle as compared to SCL immersed in PBS, or PBS containing 50 ppm of Na hyaluronate” value in series [1] (Mann-Whitney U test) is “significantly smaller”; in series [2] (Mann-Whitney U test), “significantly smaller”; in series [3] (etafilcon A SCL, PBS containing 50 ppm, Mann-Whitney U test, FIG. 5), “significantly smaller”. The “contact angle of SCL immersed for 13 days compared with 1 day” value is on record as “significantly smaller” in series [1] (setting [4]); “significantly smaller” in series [2] (setting [4]); “significantly smaller” in series [3] (etafilcon A SCL, PBS containing 50 ppm, risk ratio of less than 5%, FIG. 5). The “effect on occurrence of corneal staining” value in the series with both eyes of 15 subjects was “effect of suppressing occurrence of corneal staining”. The “contact angle as compared to Na hyaluronate” value in series [3] (summary for all of the three kinds of SCL (etafilcon A, balafilcon A, senofilcon A)) is given as “smaller contact angle”.
